Measured values taken from patent USRE48711E1, “Apoptosis signal-regulating kinase inhibitors” (Gilead Sciences, Inc., priority 2009, dated 2021).

These molecules were tested against ASK1 (Apoptosis Signal-Regulating Kinase 1) (Homo sapiens (Human), UniProt Q99683) (assay: ASK1 (Apoptosis Signal-Regulating Kinase 1) TR-FRET Kinase Assay (Biochemical IC50)). Conditions: not given.
Chain of ASK1 (Apoptosis Signal-Regulating Kinase 1) (Q99683 649-946): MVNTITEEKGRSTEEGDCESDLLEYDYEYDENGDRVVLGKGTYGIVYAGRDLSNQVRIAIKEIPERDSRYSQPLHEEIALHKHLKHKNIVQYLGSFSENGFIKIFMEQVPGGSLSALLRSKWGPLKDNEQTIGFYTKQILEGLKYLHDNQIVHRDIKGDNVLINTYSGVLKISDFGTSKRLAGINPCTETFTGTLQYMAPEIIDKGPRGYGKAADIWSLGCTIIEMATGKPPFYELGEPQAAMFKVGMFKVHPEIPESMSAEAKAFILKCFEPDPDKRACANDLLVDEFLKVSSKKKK
In the case of `Cc1ccc2c(-c3ccc(C4CC4)nc3)cc(C(=O)Nc3cccc(-c4nncn4C4CC4)c3)nc2c1C` [Example 240, N-(3-(4-cyclopropyl-4H-1,2,4-triazol-3-yl)phenyl)-4-(6-cyclopropylpyridin-3-yl)-7,8-dimethylquinoline-2-carboxamide], the IC50 is reported as 222 nM.

Same assay, conditions: TR-FRET, biotin-MBP substrate, 20 min pre-incubation, ATP added as 300 μM solution
`O=C(Nc1cccc(-c2nncn2C2CC2)n1)c1cccc(-n2cnc(C(O)C(F)(F)F)c2)c1` (stereo not drawn) [Example 208, N-(6-(4-cyclopropyl-4H-1,2,4-triazol-3-yl)pyridin-2-yl)-3-(4-(2,2,2-trifluoro-1-hydroxyethyl)-1H-imidazol-1-yl)benzamide] was tested, and the IC50 was 5 nM. `CC(C)(C)NC(=O)c1cncc(-c2ccnc(C(=O)Nc3cccc(-c4nncn4C4CC4)c3)c2)c1` [Example 75, N5-tert-butyl-N2′-(3-(4-cyclopropyl-4H-1,2,4-triazol-3-yl)phenyl)-3,4′-bipyridirie-2′,5-dicarboxamide] showed an IC50 of 10 nM. With `CC(C)n1cnnc1-c1cccc(NC(=O)c2cc(-c3cccnc3)ccn2)c1` [Example 180, N-(3-(4-isopropyl-4H-1,2,4-triazol-3-yl)phenyl)-3,4′-bipyridine-2′-carboxamide] the IC50 was 27 nM. Molecule `COC(=O)Nc1ccc(-c2ccnc(C(=O)Nc3cccc(-c4nncn4C4CC4)c3)c2)cn1` [Example 23, methyl 2′-(3-(4-cyclopropyl-4H-1,2,4-triazol-3-yl)phenylcarbamoyl)-3,4′-bipyridin-6-ylcarbamate] has an IC50 of 167 nM. Molecule `CN1CCN(c2ccnc(C(=O)Nc3cccc(-c4nncn4C)c3)c2)CC1` [Example 29, N-(3-(4-methyl-4H-1,2,4-triazol-3-yl)phenyl)-4-(4-methylpiperazin-1-yl)picolinamide] has an IC50 of 443 nM. Molecule `O=C(Nc1cccc(-c2nncn2CC2CC2)c1)c1cc(-c2cccnc2)ccn1` [Example 181, N-(3-(4-(cyclopropylmethyl)-4H-1,2,4-triazol-3-yl)phenyl)-3,4′-bipyridine-2′-carboxamide] has an IC50 of 131 nM. `O=C(Nc1cccc(-c2nncn2C2CC2)c1)c1cc(-c2cncnc2)ccn1` [Example 24, N-(3-(4-cyclopropyl-4H-1,2,4-triazol-3-yl)phenyl)-4-(pyrimidin-5-yl)picolinamide] showed an IC50 of 21 nM. In the case of `O=C(Nc1cccc(-c2nncn2C2CC2)c1)c1cc(-n2cnc(C3CC3)n2)ccn1` [Example 202, 4-(3-cyclopropyl-1H-1,2,4-triazol-1-yl)-N-(3-(4-cyclopropyl-4H-1,2,4-triazol-3-yl)phenyl)picolinamide], the IC50 is reported as 17 nM. Work on `O=C(Nc1cccc(-c2nncn2C2CC2)c1)c1cc(-n2ncnc2C2CC2)ccn1` [Example 203, 4-(5-cyclopropyl-1H-1,2,4-triazol-1-yl)-N-(3-(4-cyclopropyl-4H-1,2,4-triazol-3-yl)phenyl)picolinamide] yielded an IC50 of 538 nM. `O=C(Nc1cc(F)cc(-c2nncn2C2CC2)c1)c1cc(-c2ccc(C3CC3)nc2)ccn1` [Example 168, 6-cyclopropyl-N-(3-(4-cyclopropyl-4H-1,2,4-triazol-3-yl)-5-fluorophenyl)-3,4′-bipyridine-2′-carboxamide] gave an IC50 of 143 nM. In the case of `O=C(Nc1cccc(-c2nncn2C2CC2)c1)c1cc(-c2cnc3[nH]ccc3c2)ccn1` [Example 92, N-(3-(4-cyclopropyl-4H-1,2,4-triazol-3-yl)phenyl)-4-(1H-pyrrolo[2,3-b]pyridin-5-yl)picolinamide], the IC50 is reported as 13 nM. Work on `CN1CCc2ncc(-c3ccnc(C(=O)Nc4cccc(-c5nncn5C5CC5)c4)c3)cc2C1` [Example 173, N-(3-(4-cyclopropyl-4H-1,2,4-triazol-3-yl)phenyl)-4-(6-methyl-5,6,7,8-tetrahydro-1,6-naphthyridin-3-yl)picolinamide] yielded an IC50 of 21 nM. For `O=C(Nc1cccc(-c2nncn2C2CC2)n1)c1cccc(-c2cccnc2)c1` [Example 130, N-(6-(4-cyclopropyl-4H-1,2,4-triazol-3-yl)pyridin-2-yl)-3-(pyridin-3-yl)benzamide], the IC50 was 12 nM. For `Cn1cncc1-c1ccnc(C(=O)Nc2cccc(-c3nncn3C)c2)c1` [Example 18, 4-(1-methyl-1H-imidazol-5-yl)-N-(3-(4-methyl-4H-1,2,4-triazol-3-yl)phenyl)picolinamide], the IC50 was 39 nM. `Cc1nc(C2CC2)cn1-c1ccnc(C(=O)Nc2cccc(-c3nncn3C3CC3)c2)c1` [Example 182, 4-(4-cyclopropyl-2-methyl-1H-imidazol-1-yl)-N-(3-(4-cyclopropyl-4H-1,2,4-triazol-3-yl)phenyl)picolinamide] showed an IC50 of 15 nM. With `CCNc1ccc(-c2ccnc(C(=O)Nc3cccc(-c4nncn4C4CC4)c3)c2)cn1` [Example 119, N-(3-(4-cyclopropyl-4H-1,2,4-triazo1-3-yl)phenyl)-6-(ethylamino)-3,4′-bipyridine-2′-carboxamide] the IC50 was 9 nM. `CC(C)(O)c1ccc(-c2ccnc(C(=O)Nc3cccc(-c4nncn4C4CC4)c3)c2)cn1` [Example 165, N-(3-(4-cyclopropyl-4H-1,2,4-triazol-3-yl)phenyl)-6-(2-hydroxypropan-2-yl)-3,4′-bipyridine-2′-carboxamide] showed an IC50 of 5 nM. `O=C(Nc1cccc(-c2nncn2CC2(O)CC2)c1)c1cc(-c2cccnc2)ccn1` [Example 61, N-(3-(4-((1-hydroxycyclopropyl)methyl)-4H-1,2,4-triazol-3-yl)phenyl)-3,4′-bipyridine-2′-carboxamide] showed an IC50 of 174 nM. `O=C(Nc1cccc(-c2nncn2C2CC2)n1)c1cccc(-c2cnc3cccnc3c2)c1` [Example 191, N-(6-(4-cyclopropyl-4H-1,2,4-triazol-3-yl)pyridin-2-yl)-3-(1,5-naphthyridin-3-yl)benzamide] showed an IC50 of 18 nM. `O=C(Nc1cccc(-c2nncn2C2CC2)c1)c1cccc(-c2ccc(C3CC3)nc2)n1` [Example 263, 6′-cyclopropyl-N-(3-(4-cyclopropyl-4H-1,2,4-triazol-3-yl)phenyl)-2,3′-bipyridine-6-carboxamide] was tested, and the IC50 was 3600 nM. With `O=C(Nc1cccc(-c2nncn2C2CC2)c1)c1cc(-c2cccnc2)ccn1` [Example 15, N-(3-(4-cyclopropyl-4H-1,2,4-triazol-3-yl)phenyl)-3,4′-bipyridine-2′-carboxamide] the IC50 was 11 nM. With `O=C(Nc1cccc(-c2cncn2C2CC2)c1)c1cc(-c2ccc(C3CC3)nc2)ccn1` [Example 107, 6-cyclopropyl-N-(3-(1-cyclopropyl-1H-imidazol-5-yl)phenyl)-3,4′-bipyridine-2′-carboxamide] the IC50 was 31 nM. With `O=C(Nc1cccc(-c2nncn2C2CC2)n1)c1ccnc(-c2ccc(C3CC3)nc2)c1` [Example 260, 6′-cyclopropyl-N-(6-(4-cyclopropyl-4H-1,2,4-triazol-3-yl)pyridin-2-yl)-2,3′-bipyridine-4-carboxamide] the IC50 was 30 nM. `Cc1cn(-c2ccnc(C(=O)Nc3cccc(-c4nncn4C4CC4)n3)c2)cn1` [Example 159, N-(6-(4-cyclopropyl-4H-1,2,4-triazol-3-yl)pyridin-2-yl)-4-(4-methyl-1H-imidazol-1-yl)picolinamide] showed an IC50 of 3 nM. Molecule `O=C(Nc1cccc(-c2nncn2C2CC2)c1)c1cc(-c2cncc(C(F)(F)F)c2)ccn1` [Example 59, N-(3-(4-cyclopropyl-4H-1,2,4-triazol-3-yl)phenyl)-5-(trifluoromethyl)-3,4′-bipyridine-2′-carboxamide] has an IC50 of 44 nM. `O=C(Nc1cccc(-c2nncn2C2CC2)c1)c1cc(-c2ccc(N3CCNC3=O)cc2)ccn1` [Example 105, N-(3-(4-cyclopropyl-4H-1,2,4-triazol-3-yl)phenyl)-4-(4-(2-oxoimidazolidin-1-yl)phenyl)picolinamide] showed an IC50 of 15 nM.
